Assays:
[1] = Plasma stability, human plasma; type: in vitro ADME, Humans; conditions: 37° C.
Experimental: (§1) In addition, the plasma stability of these compounds was determined. Briefly, the determination method comprises the following steps: • 1) Thaw the frozen mixed plasma in a 37° C. water bath before testing, and then centrifuge at 4000 rpm for 5 min to remove blood clots; • 2) Add 98 μL blank plasma into each well of the 96-well reaction plate; • 3) In addition to the blank samples, add 2 μL of 100 μM working solution of test compound into each well; • 3) Incubate the reaction plate at 37° C. and start timing. Incubation times were 0, 10, 30, 60 and 120 minutes, respectively, with two replicate wells at each time point; • 4) Terminate the incubation at the corresponding time point, and add 400 μL of acetonitrile solution containing 200 ng/mL tolbutamide and 200 ng/mL labetalol to precipitate proteins; • 5) Shake each plate for 20 minutes, then centrifuge at 4000 rpm for 20 minutes, transfer 50 μL of supernatant to another 96-well plate, and dilute each sample with 100 μL of pure water; • 6) Analyze the sample by LC-MS/MS.
The experiment results are as follows, and it can be seen from the test results that the selected compounds are easily metabolized to the target compound in human plasma.

[2] = Plasma stability, mini pig plasma; type: in vitro ADME, Mini Pigs; conditions: 37° C.
Experimental: as §1

[3] = system: rash caused by small molecule EGFR inhibitors; assay: Prevention of rash caused by small molecule EGFR inhibitors, topical ointment, rat model; type: in vivo, SD rats
Excerpt: An Experiment to Verify the Prevention of Rash Caused by Small Molecule EGFR Inhibitors with Topical Administration of Compounds of the Present Application on a Rat Animal Model A rat animal model was established. After daily gavage of a small molecule EGFR inhibitor to female SD rats for […], the rats developed extensive rashes on their backs several days later (picture shown in FIG. 1). […] Similar to humans, rats developed skin rashes on their faces and bodies after oral administration of small molecule EGFR inhibitors. Both of them had the same etiology and very similar symptoms. Therefore, rats are a proper animal model for mimicking EGFR inhibitor-induced rash. After the SD rats were fed and adapted for one week (about 200 g), the rats were divided into 10 rats per group. The hair on the back of rats was gently removed with an electric razor one day before the experiment, and then an intragastric administration test was carried out. EGFR inhibitors were dissolved in a sterile aqueous solution, and diluted with PBS buffer; the amount of each gavage was not more than 2 mL, and the dosage was shown in Table 1. The experiment comprised the administration group and the control group. After intragastric administration, apply the ointment (type and concentration are shown in Table 1) of the compound used in the present application to the backs (about 3 cm*3 cm) of rats in the administration group; apply blank matrix ointment (about 0.5 g) to the backs (about 3 cm*3 cm) of rats in the control group; fix the rats with a fixed cylinder for about 4 hours after drug application, release the rats after 4 hours, wipe off the residual drug at the application site with clean water, and put them back into the cage. The frequency of intragastric administration of EGFR inhibitors is shown in Table 1, but the compounds of the present application and blank matrix ointment are applied only once a day. The intragastric administration and application test were repeated daily until an obvious rash appeared in the control group. […] Table 1 lists the animal experiment combination of various small molecule EGFR inhibitors and the compound ointment of the present application, as well as the corresponding experiment results (wherein, the value in the control rate column=the number of rats whose rash is milder in the administration group than that in the control group/the total number of rats in the administration group×100%).

[4] = system: rash caused by monoclonal EGFR inhibitors; assay: Treatment of rash caused by monoclonal EGFR inhibitors, topical ointment, rat model; type: in vivo; conditions: SD rats
Experimental: An Experiment to Verify the Treatment of Rash Caused by Monoclonal EGFR Inhibitors with Topical Administration of Compounds of the Present Application on a Rat Animal Model After the SD rats were fed and adapted for one week (about 200 g), the rats were divided into 10 rats per group. The hair on the back of rats was gently removed with an electric razor one day before the experiment, and then an administration test was carried out. The EGFR monoclonal antibody solution diluted with normal saline was injected via tail vein twice a week, and the injection rate and time were shown in Table 4; the treatment experiment was started at the time point when rats developed a rash after continuous administration for 1-2 weeks. The experiments were divided into the administration group with the compound of the present application and the control group. During the treatment experiment, monoclonal antibody EGFR inhibitors were injected twice a week. the administration group applied the compound ointment of the present application on the back (about 3 cm*3 cm) of rats every day, and the control group applied blank matrix ointment on the back (about 3 cm*3 cm); after application, the rats were fixed with a fixed cyclinder for about 4 hours, and then the rats were released, with the residual drug at the application site wiped off with clean water, and put back into the cage. […] Table 4 lists the animal experiment combinations of monoclonal antibody EGFR inhibitors and the compound ointment of the present application, as well as the corresponding experiment results (wherein, the value in the control rate column=the number of rats whose rash is milder in the administration group than that in the control group/the total number of rats in the administration group×100%).

[5] = system: rash caused by monoclonal EGFR inhibitors; assay: Prevention of rash caused by monoclonal EGFR inhibitors, topical ointment, rat model; type: in vivo, SD rats
Experimental: An Experiment to Verify the Prevention of Rash Caused by Monoclonal EGFR Inhibitors with Topical Administration of Compounds of the Present Application on a Rat Animal Model After the SD rats were fed and adapted for one week (about 200 g), the rats were divided into 10 rats per group. The hair on the back of rats was gently removed with an electric razor one day before the experiment, and then an administration test was carried out. The experiments were divided into the administration group with the compound of the present application and the control group. The EGFR monoclonal antibody solution diluted with normal saline was injected via the tail vein twice a week, and the injection rate and time are shown in Table 2. After injection, the administration group applied the compound ointment of the present application on the backs (about 3 cm*3 cm) of rats every day, and the control group applied blank matrix ointment (about 0.5 g) to the backs (about 3 cm*3 cm) of rats every day. After drug application, the rats were fixed with a fixed cyclinder for 4 h; after that, the rats were released and the residual drug at the application site was wiped off with clear water. Monoclonal antibody EGFR inhibitors were injected via the tail vein twice a week, and the compound of the present application and blank ointment were applied once a day until obvious rashes appeared in the control group. […] Table 2 lists the animal experiment combinations of various monoclonal antibody EGFR inhibitors and the compound ointment of the present application, as well as the corresponding experiment results (wherein, the value in the control rate column=the number of rats whose rash is milder in the administration group than that in the control group/the total number of rats in the administration group×100%).

[6] = BPI-7711 60 mg/kg once a day, ointment 5.0 wt% (A14: printed '^ 5%%') once a day, 12 days
[7] = Panitumumab 6 mg/kg twice a week via tail vein, ointment 0.1 wt%, 8 days of drug application

Row | SMILES | half-life at 2 µM [1] | % Retained ([1]; 0 min) | % Retained ([1]; 10 min) | % Retained ([1]; 30 min) | % Retained ([1]; 60 min) | % Retained ([1]; 120 min) | half-life at 2 µM [2] | % Retained ([2]; 0 min) | % Retained ([2]; 10 min) | % Retained ([2]; 30 min) | % Retained ([2]; 60 min) | % Retained ([2]; 120 min) | other results
1 | CC(=O)OCCN(C)C(=O)n1ccc2c(N(C)[C@H]3CN(C(=O)CC#N)CC[C@H]3C)ncnc21 [Compound A13] | 32.5 min | 100.0% | 77.1% | 48.2% | 28.1% | 7.4% | > 289 min | 100.0% | 85.3% | 91.0% | 91.0% | 77.6% | –
2 | C[C@@H]1CCN(C(=O)CC#N)C[C@@H]1N(C)c1ncnc2c1ccn2C(=O)N(C)CCOC(=O)c1ccccc1 [Compound A14] | – | – | – | – | – | – | – | – | – | – | – | – | Control Rate [3, 6]: 70%; Control Rate ([3]; Dacomitinib 10 mg/kg once a day, ointment 1.0 wt% once a day, 12 days): 50%; Control Rate ([3]; Dacomitinib 10 mg/kg once a day, ointment 5.0 wt% once a day, 12 days): 65%; Control Rate ([3]; Osimertinib 60 mg/kg twice a day, ointment 0.3 wt% once a day, 10 days): 30%; Control Rate ([3]; Osimertinib 60 mg/kg twice a day, ointment 10.0 wt% once a day, 10 days): 80%; Control Rate ([3]; Zorifertinib 60 mg/kg once a day, ointment concentration printed '^ 3%%' (wt %) once a day, 14 days): 50%; Control Rate ([4]; Cetuximab 102 mg/kg twice a week via tail vein, ointment 1.0 wt%, 10 days of drug application): 20%; Control Rate ([4]; Cetuximab 102 mg/kg twice a week via tail vein, ointment 5.0 wt%, 10 days of drug application): 60%; Control Rate [4, 7]: 40%; Control Rate ([4]; Panitumumab 6 mg/kg twice a week via tail vein, ointment 3.0 wt%, 8 days of drug application): 70%
3 | CCCCC(=O)OCCN(C)C(=O)n1ccc2c(N(C)[C@H]3CN(C(=O)CC#N)CC[C@H]3C)ncnc21 [Compound A22] | 3.1 min | 100.0% | 4.5% | 0.1% | 0.1% | 0.0% | 6.3 min | 100.0% | 25.5% | 1.8% | 0.1% | 0.1% | Control Rate ([5]; Cetuximab 100 mg/kg twice a week via tail vein, ointment 0.3 wt% once a day, 10 days): 20%; Control Rate ([5]; Cetuximab 100 mg/kg twice a week via tail vein, ointment 5.0 wt% once a day, 10 days): 40%; Control Rate ([5]; Panitumumab 10 mg/kg twice a week via tail vein, ointment 1.0 wt% once a day, 14 days): 30%; Control Rate ([5]; Panitumumab 10 mg/kg twice a week via tail vein, ointment 10.0 wt% once a day, 14 days): 65%
4 | C[C@@H]1CCN(C(=O)CC#N)C[C@@H]1N(C)c1ncnc2c1ccn2C(=O)N(C)CCOC(=O)C(C)(C)C [Compound A23] | 20.8 min | 100.0% | 60.2% | 40.1% | 18.5% | 1.6% | 41.1 min | 100.0% | 75.1% | 51.3% | 39.2% | 12.0% | –
5 | CN(CCOC(=O)C1CCCCC1)C(=O)n1ccc2c(-c3cnn([C@@H](CC#N)C4CCCC4)c3)ncnc21 [Compound A39] | – | – | – | – | – | – | – | – | – | – | – | – | Control Rate [3, 6]: 90%; Control Rate ([3]; EAI045 80 mg/kg once a day, ointment 1.0 wt% once a day, 11 days): 20%; Control Rate ([3]; EAI045 80 mg/kg once a day, ointment 5.0 wt% once a day, 11 days): 65%; Control Rate ([3]; Osimertinib 60 mg/kg twice a day, ointment 0.1 wt% once a day, 10 days): 10%; Control Rate ([3]; Osimertinib 60 mg/kg twice a day, ointment 3.0 wt% once a day, 10 days): 30%; Control Rate ([3]; Zorifertinib 60 mg/kg once a day, ointment 5.0 wt% once a day, 14 days): 40%; Control Rate ([4]; Cetuximab 100 mg/kg twice a week via tail vein, ointment 0.1 wt%, 10 days of drug application): 20%; Control Rate ([4]; Cetuximab 100 mg/kg twice a week via tail vein, ointment 1.0 wt%, 10 days of drug application): 40%; Control Rate ([4]; Cetuximab 100 mg/kg twice a week via tail vein, ointment 5.0 wt%, 10 days of drug application): 80%; Control Rate ([4]; Cetuximab 100 mg/kg twice a week via tail vein, ointment 10.0 wt%, 10 days of drug application): 100%; Control Rate [4, 7]: 20%; Control Rate ([4]; Panitumumab 6 mg/kg twice a week via tail vein, ointment 1.0 wt%, 8 days of drug application): 30%; Control Rate ([4]; Panitumumab 6 mg/kg twice a week via tail vein, ointment 5.0 wt%, 8 days of drug application): 60%; Control Rate ([4]; Panitumumab 6 mg/kg twice a week via tail vein, ointment 10.0 wt%, 8 days of drug application): 70%

Now from value to compound, other results behind:

Row | half-life at 2 µM [1] | % Retained ([1]; 0 min) | % Retained ([1]; 10 min) | % Retained ([1]; 30 min) | % Retained ([1]; 60 min) | % Retained ([1]; 120 min) | half-life at 2 µM [2] | % Retained ([2]; 0 min) | % Retained ([2]; 10 min) | % Retained ([2]; 30 min) | % Retained ([2]; 60 min) | % Retained ([2]; 120 min) | SMILES | other results
6 | 4.8 min | 100.0% | 20.6% | 0.9% | 0.0% | 0.0% | 71.5 min | 100.0% | 88.3% | 75.9% | 57.6% | 30.8% | C[C@@H]1CCN(C(=O)CC#N)C[C@@H]1N(C)c1ncnc2c1ccn2C(=O)N(C)CCOC(=O)c1ccncc1 [Compound A15] | –
7 | 25 min | 100.0% | 83.4% | 50.7% | 20.4% | 3.8% | 66.8 min | 100.0% | 100.9% | 76.0% | 52.2% | 30.7% | C[C@@H]1CCN(C(=O)CC#N)C[C@@H]1N(C)c1ncnc2c1ccn2C(=O)N(C)CCOC(=O)C1CCN(C)CC1 [Compound A17] | –
8 | 2.6 min | 100.0% | 5.1% | 0.0% | 0.0% | 0.0% | 24.3 min | 100.0% | 73.0% | 46.2% | 18.5% | 3.3% | CC(C)C(=O)OCCN(C)C(=O)n1ccc2c(N(C)[C@H]3CN(C(=O)CC#N)CC[C@H]3C)ncnc21 [Compound A19] | –

Source: patent US20250188088A1, “COMPOUND AND USE THEREOF” (ONQUALITY PHARMACEUTICALS CHINA LTD., priority 2022, published 2025)
